Laboratory results published in patent US20060025474A1, “Bisphenyl compounds useful as vitamin D3 receptor agonists” (priority 2004, published 2006).

system: ECAC2 mRNA in Caco-2 cells; type: cell-based
Protocol: The mRNA Expression Assay of ECAC2 in Caco-2 Cells
The dispersed cells were plated in 48-well plate at a concentration of 6.3×10^4 cells/well and incubated for 4 days at 37° C. The culture medium (Dulbecco's Modified Eagle Medium (D-MEM) without NaHCO3 with 44 mM NaHCO3, 1 mM non-essential amino acids, and 2 mM L-glutamine, 90%; fetal bovine serum, 10%) was then replaced with the same medium containing various concentrations of LG190178 (the compound disclosed in WO00/10958 and the corresponding U.S. Pat. No. 6,218,430 B1) or the compounds of the present invention, and cells were cultured for 1 day at 37° C. The culture medium containing the compounds was changed twice per day.
Total RNA Isolation from Caco-2 Cell
Total RNA was isolated from Caco-2 cell following ABI PRISM™ 6100 Nucleic Acid PrepStation protocol from Applied Biosystems.
Real Time RT-PCR Assay of ECAC2
ECAC2 mRNA expression was determined using TaqMan One-step RT-PCR Master Mix Reagents Kit and PRISM7000 systems from Applied Biosystems.
Primer information and cycle conditions are 1)ECAC2, forward 5′-[…]-3′, reverse 5′-GTCCTCTGTCTGGMGATGA-3′, Taqman probe 5′-[…]-3′, 55 cycles, annealing temperature (Ta)=60° C.; 2)GAPDH, forward 5′-GMGGTGMGGTCGGAGTC-3′, reverse 5′-GMGATGGTGATGGGATTTC-3′, Taqman probe 5′-[…]-3′, 55 cycles, Ta=60° C. ECAC2 mRNA values were normalized for the expression of GAPDH mRNA within each sample.
Comparison of ECAC2 mRNA Value
The EC50 values of ECAC2 mRNA values were analyzed by Emax models. The ECAC2 mRNA ratio was calculated as the ratio of the EC50 value of the compounds to that of LG190178. ECAC2 is a channel-like transporter mediating intestinal calcium absorption. It is described in J Biol Chem. Aug. 6, 1999; 274(32):22739-46 for example.

First: CCC(CC)(c1ccc(CCC(O)(C(F)(F)F)C(F)(F)F)c(C)c1)c1ccc(OCC(CO)CO)c(C)c1 [Example 79, 2-(4-{1-ethyl-1-[3-methyl-4-(4,4,4-trifluoro-3-hydroxy-3-trifluoromethyl-butyl)-phenyl]-propyl}-2-methyl-phenoxymethyl)-propane-1,3-diol]
Second: CCC(CC)(c1ccc(C#CC(O)(C(F)(F)F)C(F)(F)F)c(C)c1)c1ccc(CCC(=O)O)c(C)c1 [Example 106, 3-(4-{1-ethyl-1-[3-methyl-4-(4,4,4-trifluoro-3-hydroxy-3-trifluoromethyl-but-1-ynyl)-phenyl]-propyl}-2-methyl-phenyl)-propionic acid]
The “ECaC-2 mRNA induction activity in Caco-2 cells” value (from here on “ECaC-2 mRNA induction activity”) of the first is lower: 178% for the first, 399% for the second.

Going from `CCC(CC)(c1ccc(CCC(O)C(C)(C)C)c(C)c1)c1ccc(OCCCCC(=O)O)c(C)c1` (centres unmarked) [Example 80, 5-(4-{1-ethyl-1-[4-(3-hydroxy-4,4-dimethyl-pentyl)-3-methyl-phenyl]-propyl}-2-methyl-phenoxy)-pentanoic acid] to `CCC(CC)(c1ccc(CCC(O)C(C)(C)C)c(C)c1)c1ccc(OCCCCCN)c(C)c1` (centres unmarked) [Example 102, 1-(4-{1-[4-(5-amino-pentyloxy)-3-methyl-phenyl]-1-ethyl-propyl}-2-methyl-phenyl)-4,4-dimethyl-pentan-3-ol], the “ECaC-2 mRNA induction activity” value falls from 518% to 166%.

Compared with `CCC(O)(/C=C/c1ccc(C(CC)(CC)c2ccc(OCCCCC(=O)O)c(C)c2)cc1C)CC` [Example 81, 5-(4-{1-Ethyl-1-[4-((E)-3-ethyl-3-hydroxy-pent-1-enyl)-3-methyl-phenyl]-propyl}-2-methyl-phenoxy)-pentanoic acid], `CCC(CC)(c1ccc(/C=C/C(O)(C(F)(F)F)C(F)(F)F)c(C)c1)c1ccc(OCCCCC(=O)O)c(C)c1` [Example 84, 5-(4-{1-ethyl-1-[3-methyl-4-((E)-4,4,4-trifluoro-3-hydroxy-3-trifluoromethyl-but-1-enyl)-phenyl]-propyl}-2-methyl-phenoxy)-pentanoic acid] is higher in “ECaC-2 mRNA induction activity” value: 102% for the first, 1843% for the second.

Compared with `CCC(CC)(c1ccc(/C=C/C2(O)CCCC2)c(C)c1)c1ccc(OCCCCC(=O)O)c(C)c1` [Example 86, 5-[4-(1-ethyl-1-{4-[(E)-2-(1-hydroxy-cyclopentyl)-vinyl]-3-methyl-phenyl}-propyl)-2-methyl-phenoxy]-pentanoic acid], `CCC(CC)(c1ccc(/C=C/C2(O)CCCCC2)c(C)c1)c1ccc(OCCCCC(=O)O)c(C)c1` [Example 88, 5-[4-(1-ethyl-1-{4-[(E)-2-(1-hydroxy-cyclohexyl)-vinyl]-3-methyl-phenyl}-propyl)-2-methyl-phenoxy]-pentanoic acid] is higher in “ECaC-2 mRNA induction activity” value: 289% for the first, 845% for the second.

Going from `CCC(CC)(c1ccc(/C=C/C(O)(C(F)(F)F)C(F)(F)F)c(C)c1)c1ccc(OCCCCCC(=O)O)c(C)c1` [Example 92, 6-(4-{1-Ethyl-1-[3-methyl-4-((E)4,4,4-trifluoro-3-hydroxy-3-trifluoromethyl-but-1-enyl)-phenyl]-propyl}-2-methyl-phenoxy)-hexanoic acid] to `CCC(CC)(c1ccc(/C=C/C(O)(C(F)(F)F)C(F)(F)F)c(C)c1)c1ccc(CCC(=O)O)c(C)c1` [Example 107, 3-(4-{1-ethyl-1-[3-methyl-4-((E)-4,4,4-trifluoro-3-hydroxy-3-trifluoromethyl-but-1-enyl)-phenyl]-propyl}-2-methyl-phenyl)-propionic acid], the “ECaC-2 mRNA induction activity” value rises from 226% to 823%.

In the case of `CCC(CC)(c1ccc(/C=C/C(O)(C(F)(F)F)C(F)(F)F)c(C)c1)c1ccc(OCCCCc2nnn[nH]2)c(C)c1` [Example 115, (E)-4-[4-(1-ethyl-1-{3-methyl-4-[4-(1 H-tetrazol-5-yl)-butoxy]-phenyl}-propyl)-2-methyl-phenyl]-1,1,1-trifluoro-2-trifluoromethyl-but-3-en-2-ol], the “ECaC-2 mRNA induction activity” value is reported as 91%.
